Source: ChEMBL document CHEMBL6127050, “Simultaneous inhibition of FLT3 and HDAC by novel 6-ethylpyrazine-2-Carboxamide derivatives provides therapeutic advantages in acute myelocytic leukemia” (Eur J Med Chem, 2024)
The source made the active and inactive calls. The rule behind the calls is not given here.

Key:
MOLM-13 [1] = assay: Inhibition of ERK1/2 phosphorylation in human MOLM-13 cells at 0.01 to 0.1 microM by Western blot analysis; format: cell-based; conditions: dose 0.01-0.1 µM
MOLM-13 [2] = assay: Antitumor activity against human MOLM-13 cells xenografted BALB/c mouse assessed as reduction in tumor volume at 10 mg/kg, IG qd administered 5 days a week and measured on day 9; format: functional, organism-based; conditions: time 9.0 day
[3] = Stability in mouse plasma incubated upto 24 hrs by HPLC analysis; format: ADME, cell-free
MOLM-13 [4] = assay: Induction of cell cycle arrest in human MOLM-13 cells assessed as accumulation of cells at G0/G1 phase at 0.05 uM measured for 48 hrs by PI/RNase staining based flow cytometric analysis (reference value: 46.24 %); format: functional
MOLM-13 [5] = assay: Induction of cell cycle arrest in human MOLM-13 cells assessed as accumulation of cells at G2M phase at 0.05 uM measured for 48 hrs by PI/RNase staining based flow cytometric analysis (reference value: 10.81%); format: functional
[6] = Metabolic stability in mouse liver microsome incubated upto 120 mins in presence of NADPH by HPLC analysis; format: ADME; conditions: microsomes, 2 h
MOLM-13 [7] = assay: Induction of cell cycle arrest in human MOLM-13 cells assessed as accumulation of cells at S-phase at 0.05 uM measured for 48 hrs by PI/RNase staining based flow cytometric analysis (reference value: 42.95%); format: functional
MOLM-13 [8] = assay: Induction of apoptosis in human MOLM-13 cells assessed as necrotic at 0.1 uM incubated for 48 hrs by Annexin V-FITC staining based flow cytometry analysis (reference value: 0.013 %); format: functional
MOLM-13 [9] = assay: Inhibition of ERK1/2 phosphorylation in human MOLM-13 cells at 0.1 microM by Western blot analysis; format: cell-based
[10] = biological target: Receptor-type tyrosine-protein kinase FLT3 (Homo sapiens) (UniProt P36888); assay: Inhibition of FLT3 phosphorylation in human MOLM-13 cells at 0.001 to 0.1 microM by Western blot analysis; format: cell-based; conditions: dose 0.001-0.1 µM
KG-1 = assay: Antiproliferative activity against human KG-1 cells incubated for 48 hrs; conditions: KG-1, 48 h
[11] = Cytotoxicity against HEK293T cells incubated for 48 hrs; format: toxicity, cell-based, HEK-293T; conditions: human
[12] = biological target: T1, Receptor-type tyrosine-protein kinase FLT3 (Homo sapiens, UniProt P36888); assay: Inhibition of FLT3 (unknown origin) incubated for 40 mins in presence of ATP by kinase-glo plus luminescence assay
T1 sequence (P36888 whole entry): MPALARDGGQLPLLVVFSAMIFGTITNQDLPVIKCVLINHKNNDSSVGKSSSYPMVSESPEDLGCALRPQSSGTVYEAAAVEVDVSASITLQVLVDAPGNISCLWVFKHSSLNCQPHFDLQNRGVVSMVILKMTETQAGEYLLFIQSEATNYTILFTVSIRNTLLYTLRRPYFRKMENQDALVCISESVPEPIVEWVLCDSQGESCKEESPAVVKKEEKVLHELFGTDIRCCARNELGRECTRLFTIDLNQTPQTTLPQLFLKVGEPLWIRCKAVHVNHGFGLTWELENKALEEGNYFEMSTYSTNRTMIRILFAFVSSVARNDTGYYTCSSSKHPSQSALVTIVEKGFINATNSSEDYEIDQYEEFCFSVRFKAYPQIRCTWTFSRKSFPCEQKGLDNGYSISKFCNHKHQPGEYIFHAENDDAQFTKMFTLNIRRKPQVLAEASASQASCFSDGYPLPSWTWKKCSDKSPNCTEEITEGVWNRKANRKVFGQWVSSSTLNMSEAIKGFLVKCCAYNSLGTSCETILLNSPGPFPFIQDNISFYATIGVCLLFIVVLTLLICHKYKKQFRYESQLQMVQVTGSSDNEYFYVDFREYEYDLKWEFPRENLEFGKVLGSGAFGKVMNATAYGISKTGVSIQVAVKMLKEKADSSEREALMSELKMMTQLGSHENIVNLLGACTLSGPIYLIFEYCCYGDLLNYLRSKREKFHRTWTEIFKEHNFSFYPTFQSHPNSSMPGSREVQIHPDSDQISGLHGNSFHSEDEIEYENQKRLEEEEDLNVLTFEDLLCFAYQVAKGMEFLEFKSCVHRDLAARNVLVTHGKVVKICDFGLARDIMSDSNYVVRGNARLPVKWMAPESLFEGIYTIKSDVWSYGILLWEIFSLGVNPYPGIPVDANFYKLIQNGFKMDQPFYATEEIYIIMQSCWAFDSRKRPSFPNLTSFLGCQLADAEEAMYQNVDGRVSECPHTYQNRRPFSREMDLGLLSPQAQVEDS

MOLM-13 [13] = assay: Induction of apoptosis in human MOLM-13 cells assessed as early apoptotic cells at 0.1 uM incubated for 48 hrs by Annexin V-FITC staining based flow cytometry analysis (reference value: 4.07 %); format: functional
[14] = Toxicity in BALB/c mouse xenografted with human MOLM-13 cells assessed as lung damage at 10 mg/kg, IG qd administered 5 days a week and measured on day 9 by H and E staining based analysis; format: organism-based; conditions: in vivo, po, 216 h, time 9 day
MOLM-13 [15] = assay: Induction of apoptosis in human MOLM-13 cells assessed as late apoptotic cells at 0.1 uM incubated for 48 hrs by Annexin V-FITC staining based flow cytometry analysis (reference value: 1.40 %); format: functional
Mitochondrial membrane = assay: Induction of mitochondrial membrane potential depolarization in human MOLM-13 cells; format: cell membranes; conditions: dose 0.1 µM
[16] = Toxicity in BALB/c mouse xenografted with human MOLM-13 cells assessed as kidney damage at 10 mg/kg, IG qd administered 5 days a week and measured on day 9 by H and E staining based analysis; format: organism-based; conditions: in vivo, po, 216 h, time 9 day
MOLM-13 [17] = assay: Antitumor activity against human MOLM-13 cells xenografted BALB/c mouse assessed as tumor growth inhibition at 10 mg/kg, IG qd administered 5 days a week and measured on day 9; format: functional; conditions: MOLM-13, po, 216 h, time 9 day, read-out: TGI
MOLM-13 [18] = assay: Induction of apoptosis in human MOLM-13 cells assessed as caspase-3 activation; format: functional, cell-based; conditions: dose 0.1 µM
MOLM-13 [19] = assay: Induction of apoptosis in human MOLM-13 cells assessed as viable cells at 0.1 uM incubated for 48 hrs by Annexin V-FITC staining based flow cytometry analysis (reference value: 94.5 %); format: functional
MOLM-13 [20] = assay: Inhibition of STAT5 phosphorylation in human MOLM-13 cells at 0.01 to 0.1 microM by Western blot analysis; format: cell-based; conditions: dose 0.01-0.1 µM
K562 = assay: Antiproliferative activity against human K562 cells incubated for 48 hrs; conditions: K562, 48 h
MOLM-13 [21] = assay: Antiproliferative activity against human MOLM-13 cells incubated for 48 hrs; conditions: MOLM-13, 48 h
THP-1 = assay: Antiproliferative activity against human THP-1 cells incubated for 48 hrs; conditions: THP-1, 48 h
[22] = Toxicity in BALB/c mouse xenografted with human MOLM-13 cells assessed as body weight loss at 10 mg/kg, IG qd administered 5 days a week and measured on day 9; format: organism-based; conditions: in vivo, po, 216 h, time 9 day
MOLM-13 [23] = assay: Induction of apoptosis in human MOLM-13 cells assessed as viable cells at 0.1 uM incubated for 48 hrs in presence of gilteritinib by Annexin V-FITC staining based flow cytometry analysis (reference value: 94.5 %); format: functional
MOLM-13 [24] = assay: Induction of apoptosis in human MOLM-13 cells assessed as necrotic cells at 0.1 uM incubated for 48 hrs in presence of gilteritinib by Annexin V-FITC staining based flow cytometry analysis (reference value: 0.013 %); format: functional
MOLM-13 [25] = assay: Induction of apoptosis in human MOLM-13 cells assessed as late apoptotic cells at 0.1 uM incubated for 48 hrs in presence of gilteritinib by Annexin V-FITC staining based flow cytometry analysis (reference value: 1.40 %); format: functional
MOLM-13 [26] = assay: Induction of cell cycle arrest in human MOLM-13 cells assessed as accumulation of cells at G2M phase at 0.05 uM measured for 48 hrs in presence of gilteritinib by PI/RNase staining based flow cytometric analysis (reference value: 10.81%); format: functional
[27] = Toxicity in BALB/c mouse xenografted with human MOLM-13 cells assessed as lung damage at 30 mg/kg, IG qd administered 5 days a week and measured on day 9 in presence of gilteritinib by H and E staining based analysis; format: organism-based; conditions: in vivo, po, 216 h, time 9 day
[28] = Toxicity in NOD/SCID mouse xenografted with human MOLM-13 cells assessed as increase in survival rate at 60 mg/kg, IG administered 5 days per week in presence of gilteritinib by Kaplan Mayer survival analysis; format: organism-based; conditions: in vivo, po, 120 h, time 5 day
MOLM-13 [29] = assay: Induction of cell cycle arrest in human MOLM-13 cells assessed as accumulation of cells at S-phase at 0.05 uM measured for 48 hrs in presence of gilteritinib by PI/RNase staining based flow cytometric analysis (reference value: 42.95%); format: functional
MOLM-13 [30] = assay: Induction of cell cycle arrest in human MOLM-13 cells assessed as accumulation of cells at G0/G1 phase at 0.05 uM measured for 48 hrs in presence of gilteritinib by PI/RNase staining based flow cytometric analysis (reference value: 46.24 %); format: functional
MOLM-13 [31] = assay: Induction of apoptosis in human MOLM-13 cells assessed as early apoptotic cells at 0.1 uM incubated for 48 hrs in presence of gilteritinib by Annexin V-FITC staining based flow cytometry analysis (reference value: 4.07 %); format: functional
[32] = Toxicity in BALB/c mouse xenografted with human MOLM-13 cells assessed as body weight loss at 30 mg/kg, IG qd administered 5 days a week and measured on day 9 in presence of gilteritinib; format: organism-based; conditions: in vivo, po, 216 h, time 9 day

CCc1nc(C(N)=O)c(Nc2ccc(N3CCN(CCCCCCCC(=O)NO)CC3)c(OC)c2)nc1NC1CCOCC1
inhibition (MOLM-13 [1]): Active | Activity (MOLM-13 [2]): Active | Stability [3]: Stable | Activity (MOLM-13 [4]): 75.85% | Activity (MOLM-13 [5]): 4.12% | Stability [6]: Stable | Activity (MOLM-13 [7]): 20.04% | Activity (MOLM-13 [8]): 0.54% | inhibition (MOLM-13 [9]): Active | inhibition [10]: Active | IC50 (KG-1): 660 nM | IC50 at 48 h [11]: 3050 nM | IC50 [12]: 0.6 nM | Activity (MOLM-13 [13]): 43.5% | Activity [14]: Non-Toxic | Activity (MOLM-13 [15]): 16.6% | Activity (Mitochondrial membrane): Dose-Dependent Effect | Activity [16]: Non-Toxic | inhibition in vivo at 10 mg/kg (MOLM-13 [17]): 65.3% | Activity (MOLM-13 [18]): Dose-Dependent Effect | viability at 0.1 µM (MOLM-13 [19]; Homo sapiens, MOLM-13, read-out: Activity): 39.4% | inhibition (MOLM-13 [20]): Active | IC50 (K562): 490 nM | IC50 (MOLM-13 [21]): 8 nM | IC50 (THP-1): 650 nM | Activity [22]: Non-Toxic

O=C(CCCCCCC(=O)Nc1ccccc1)NO [VORINOSTAT]
Activity (MOLM-13 [23]): 46.8% | Activity (MOLM-13 [4]): 49.16% | Activity (MOLM-13 [24]): 0.88% | Activity (MOLM-13 [5]): 7.58% | Activity (MOLM-13 [25]): 17.4% | Activity (MOLM-13 [7]): 43.26% | Activity (MOLM-13 [8]): 0.18% | Activity (MOLM-13 [26]): 7.24% | Activity [27]: Non-Toxic | Activity [28]: Non-Toxic | IC50 at 48 h [11]: 2210 nM | Activity (MOLM-13 [29]): 28.26% | Activity (MOLM-13 [13]): 14.8% | Activity (MOLM-13 [15]): 2.01% | Activity (MOLM-13 [30]): 64.51% | Activity (MOLM-13 [19]): 83% | Activity (MOLM-13 [31]): 35% | Activity [32]: Non-Toxic
